Source: a compilation of properties of binary mixtures (doi:10.1016/j.molliq.2022.120052)

Assay: xn = mol fraction of the nth substance listed
Conditions: 100 kPa

Question: What does the source list for C[n+]1ccn(CCCC#N)c1.O=S(=O)([O-])C(F)(F)F + O=C1CCCO1?
Answer: electrical conductivity (288.15 K, x1 = 0.1003): 0.725 S/m; electrical conductivity (288.15 K, x1 = 0.2001): 0.798 S/m; electrical conductivity (288.15 K, x1 = 0.3999): 0.353 S/m; electrical conductivity (288.15 K, x1 = 0.4999): 0.261 S/m; electrical conductivity (288.15 K, x1 = 0.7001): 0.118 S/m; electrical conductivity (288.15 K, x1 = 0.8002): 0.084 S/m; electrical conductivity (288.15 K, x1 = 0.9004): 0.05 S/m; electrical conductivity (293.15 K, x1 = 0.1003): 0.834 S/m; electrical conductivity (293.15 K, x1 = 0.2001): 0.906 S/m; electrical conductivity (293.15 K, x1 = 0.3003): 0.623 S/m; electrical conductivity (293.15 K, x1 = 0.3999): 0.434 S/m; electrical conductivity (293.15 K, x1 = 0.4999): 0.318 S/m; electrical conductivity (293.15 K, x1 = 0.6002): 0.232 S/m; electrical conductivity (293.15 K, x1 = 0.7001): 0.156 S/m; electrical conductivity (293.15 K, x1 = 0.8002): 0.11 S/m; electrical conductivity (293.15 K, x1 = 1): 0.034 S/m; electrical conductivity (298.15 K, x1 = 0.1003): 0.95 S/m; electrical conductivity (298.15 K, x1 = 0.2001): 1.02 S/m; electrical conductivity (298.15 K, x1 = 0.3003): 0.726 S/m; electrical conductivity (298.15 K, x1 = 0.3999): 0.521 S/m; electrical conductivity (298.15 K, x1 = 0.4999): 0.385 S/m; electrical conductivity (298.15 K, x1 = 0.6002): 0.283 S/m; electrical conductivity (298.15 K, x1 = 0.7001): 0.201 S/m; electrical conductivity (298.15 K, x1 = 0.8002): 0.142 S/m; electrical conductivity (298.15 K, x1 = 1): 0.048 S/m; electrical conductivity (303.15 K, x1 = 0.1003): 1.07 S/m; electrical conductivity (303.15 K, x1 = 0.2001): 1.14 S/m; electrical conductivity (303.15 K, x1 = 0.3003): 0.835 S/m; electrical conductivity (303.15 K, x1 = 0.3999): 0.617 S/m; electrical conductivity (303.15 K, x1 = 0.6002): 0.341 S/m; electrical conductivity (303.15 K, x1 = 0.7001): 0.252 S/m; electrical conductivity (303.15 K, x1 = 1): 0.064 S/m; electrical conductivity (308.15 K, x1 = 0.1003): 1.2 S/m; electrical conductivity (308.15 K, x1 = 0.2001): 1.26 S/m; electrical conductivity (308.15 K, x1 = 0.3003): 0.951 S/m; electrical conductivity (308.15 K, x1 = 0.3999): 0.718 S/m; electrical conductivity (308.15 K, x1 = 0.4999): 0.539 S/m; electrical conductivity (308.15 K, x1 = 0.7001): 0.309 S/m; electrical conductivity (308.15 K, x1 = 0.8002): 0.221 S/m; electrical conductivity (308.15 K, x1 = 0.9004): 0.153 S/m; electrical conductivity (313.15 K, x1 = 0.1003): 1.33 S/m; electrical conductivity (313.15 K, x1 = 0.2001): 1.4 S/m; electrical conductivity (313.15 K, x1 = 0.3999): 0.83 S/m; electrical conductivity (313.15 K, x1 = 0.4999): 0.625 S/m; electrical conductivity (313.15 K, x1 = 0.8002): 0.269 S/m; electrical conductivity (313.15 K, x1 = 0.9004): 0.19 S/m; electrical conductivity (313.15 K, x1 = 1): 0.106 S/m; electrical conductivity (318.15 K, x1 = 0.1003): 1.48 S/m; electrical conductivity (318.15 K, x1 = 0.2001): 1.53 S/m; electrical conductivity (318.15 K, x1 = 0.3003): 1.21 S/m; electrical conductivity (318.15 K, x1 = 0.3999): 0.947 S/m; electrical conductivity (318.15 K, x1 = 0.4999): 0.721 S/m; electrical conductivity (318.15 K, x1 = 0.6002): 0.554 S/m; electrical conductivity (318.15 K, x1 = 0.7001): 0.441 S/m; electrical conductivity (323.15 K, x1 = 0.1003): 1.61 S/m; electrical conductivity (323.15 K, x1 = 0.2001): 1.68 S/m; electrical conductivity (323.15 K, x1 = 0.3999): 1.07 S/m; electrical conductivity (323.15 K, x1 = 0.4999): 0.821 S/m; electrical conductivity (323.15 K, x1 = 0.6002): 0.642 S/m; electrical conductivity (323.15 K, x1 = 0.7001): 0.513 S/m; electrical conductivity (328.15 K, x1 = 0.1003): 1.76 S/m; electrical conductivity (328.15 K, x1 = 0.2001): 1.83 S/m; electrical conductivity (328.15 K, x1 = 0.3003): 1.49 S/m; electrical conductivity (328.15 K, x1 = 0.3999): 1.2 S/m; electrical conductivity (328.15 K, x1 = 0.4999): 0.927 S/m; electrical conductivity (328.15 K, x1 = 0.6002): 0.733 S/m; electrical conductivity (328.15 K, x1 = 0.7001): 0.592 S/m; electrical conductivity (328.15 K, x1 = 0.8002): 0.449 S/m; electrical conductivity (328.15 K, x1 = 0.9004): 0.333 S/m; electrical conductivity (328.15 K, x1 = 1): 0.205 S/m; electrical conductivity (333.15 K, x1 = 0.1003): 1.91 S/m; electrical conductivity (333.15 K, x1 = 0.2001): 1.98 S/m; electrical conductivity (333.15 K, x1 = 0.3003): 1.64 S/m; electrical conductivity (333.15 K, x1 = 0.4999): 1.04 S/m; electrical conductivity (333.15 K, x1 = 0.6002): 0.832 S/m; electrical conductivity (333.15 K, x1 = 0.7001): 0.675 S/m; electrical conductivity (333.15 K, x1 = 0.8002): 0.52 S/m; electrical conductivity (333.15 K, x1 = 0.9004): 0.392 S/m; electrical conductivity (333.15 K, x1 = 1): 0.25 S/m; electrical conductivity (338.15 K, x1 = 0.1003): 2.07 S/m; electrical conductivity (338.15 K, x1 = 0.2001): 2.14 S/m; electrical conductivity (338.15 K, x1 = 0.3999): 1.46 S/m; electrical conductivity (338.15 K, x1 = 0.4999): 1.17 S/m; electrical conductivity (338.15 K, x1 = 0.6002): 0.945 S/m; electrical conductivity (338.15 K, x1 = 0.7001): 0.761 S/m; electrical conductivity (338.15 K, x1 = 0.8002): 0.596 S/m; electrical conductivity (338.15 K, x1 = 0.9004): 0.454 S/m; electrical conductivity (343.15 K, x1 = 0.1003): 2.22 S/m; electrical conductivity (343.15 K, x1 = 0.2001): 2.3 S/m; electrical conductivity (343.15 K, x1 = 0.3003): 1.95 S/m; electrical conductivity (343.15 K, x1 = 0.3999): 1.6 S/m; electrical conductivity (343.15 K, x1 = 0.4999): 1.29 S/m; electrical conductivity (343.15 K, x1 = 0.6002): 1.05 S/m; electrical conductivity (343.15 K, x1 = 0.8002): 0.677 S/m; electrical conductivity (343.15 K, x1 = 0.9004): 0.519 S/m; electrical conductivity (343.15 K, x1 = 1): 0.355 S/m
